Data published in ChEMBL document CHEMBL1133439, “Synthesis and biological evaluation of enantiopure thionitrites: the solid-phase synthesis and nitrosation of D-glutathione as a molecular probe” (Bioorg Med Chem Lett, 2000).

Tests used:
Rattus norvegicus [1] = species on record: Rattus norvegicus; test: Effective concentration required for relaxation of rat aortic rings; assay type: functional; conditions: Aorta
Rattus norvegicus [2] = species on record: Rattus norvegicus; test: Percentage Inhibition of relaxation of phenylephrine-induced tone in rat aortic smooth muscle at ~10000 nM; assay type: functional, Aorta
Rattus norvegicus [3] = species on record: Rattus norvegicus; test: Percentage Inhibition of relaxation of phenylephrine-induced tone in rat aortic smooth muscle at ~100 nM; assay type: functional, Aorta
Rattus norvegicus [4] = species on record: Rattus norvegicus; test: Percentage Inhibition of relaxation of phenylephrine-induced tone in rat aortic smooth muscle at ~10 nM; assay type: functional, Aorta
Rattus norvegicus [5] = species on record: Rattus norvegicus; test: Percentage Inhibition of relaxation of phenylephrine-induced tone in rat aortic smooth muscle at ~500 nM; assay type: functional, Aorta
Rattus norvegicus [6] = species on record: Rattus norvegicus; test: Percentage Inhibition of relaxation of phenylephrine-induced tone in rat aortic smooth muscle at ~1000 nM; assay type: functional, Aorta
Rattus norvegicus [7] = species on record: Rattus norvegicus; test: Percentage Inhibition of relaxation of phenylephrine-induced tone in rat aortic smooth muscle at ~600 nM; assay type: functional, Aorta
Rattus norvegicus [8] = species on record: Rattus norvegicus; test: Percentage Inhibition of relaxation of phenylephrine-induced tone in rat aortic smooth muscle at ~5000 nM; assay type: functional, Aorta

| EC50 (Rattus norvegicus [1]) | Compound | Inhibition (Rattus norvegicus [3]) | Inhibition (Rattus norvegicus [6]) | other results |
| --- | --- | --- | --- | --- |
| 0.002 µM | N[C@@H](CSN=O)C(=O)O | – | – | – |
| 0.0021 µM | N[C@H](CSN=O)C(=O)O | – | – | – |

The remaining lines, values behind:

| Compound | EC50 (Rattus norvegicus [1]) | Inhibition (Rattus norvegicus [3]) | Inhibition (Rattus norvegicus [6]) | other results |
| --- | --- | --- | --- | --- |
| CC(=O)N[C@@H](C(=O)O)C(C)(C)SN=O | 0.492 µM | – | – | – |
| N[C@@H](CCC(=O)N[C@@H](CSN=O)C(=O)NCC(=O)O)C(=O)O [S-NITROSOGLUTATHIONE] | 0.107 µM | 50% | 90% | Inhibition (Rattus norvegicus [2]): 100%; Inhibition (Rattus norvegicus [4]): 20%; Inhibition (Rattus norvegicus [5]): 80% |
| CC(=O)N[C@H](C(=O)O)C(C)(C)SN=O | 0.476 µM | – | – | – |
| N[C@H](CCC(=O)N[C@H](CSN=O)C(=O)NCC(=O)O)C(=O)O | 0.29 µM | 25% | 80% | Inhibition (Rattus norvegicus [7]): 50%; Inhibition (Rattus norvegicus [8]): 100% |
